Legend:
HCT-116 [1] = assay: Induction of apoptosis in human HCT116 cells assessed as up regulation of caspase-3 expression by RT-PCR analysis relative to untreated control; type: functional
NCI-H460 = assay: Antiproliferative activity against human NCI-H460 cells assessed as inhibition of cell growth at 10 uM measured after 48 hrs by SRB assay relative to control; type: functional
WI-38 [2] = assay: Cell cycle arrest in human WI-38 cells assessed as accumulation in sub-G phase at IC50 concentration incubated for 48 hrs by propidium iodide staining based flow cytometry analysis (reference value: 1.35 %); conditions: wi-38, 48 h
NCI/ADR-RES [3] = assay: Antiproliferative activity against human NCI/ADR-RES cells assessed as inhibition of cell growth measured after 48 hrs by SRB assay; type: functional
CAKI-1 = assay: Antiproliferative activity against human CAKI-1 cells assessed as inhibition of cell growth measured after 48 hrs by SRB assay; type: functional
MDA-MB-435 = assay: Antiproliferative activity against human MDA-MB-435 cells assessed as inhibition of cell growth measured after 48 hrs by SRB assay; type: functional
HCT-116 [4] = assay: Cell cycle arrest in human HCT-116 cells assessed as accumulation in G0/G1 phase at IC50 concentration incubated for 48 hrs by propidium iodide staining based flow cytometry analysis (reference value: 42.5 %); type: functional
NCI-H23 = assay: Antiproliferative activity against human NCI-H23 cells assessed as inhibition of cell growth measured after 48 hrs by SRB assay; type: functional
HOP-92 = assay: Antiproliferative activity against human HOP-92 cells assessed as inhibition of cell growth measured after 48 hrs by SRB assay; type: functional
IGROV-1 = assay: Antiproliferative activity against human IGROV-1 cells assessed as inhibition of cell growth measured after 48 hrs by SRB assay; type: functional
U-251 = assay: Antiproliferative activity against human U-251 cells assessed as inhibition of cell growth measured after 48 hrs by SRB assay; type: functional
COLO 205 = assay: Antiproliferative activity against human COLO 205 cells assessed as inhibition of cell growth measured after 48 hrs by SRB assay; type: functional
NCI-H322M = assay: Antiproliferative activity against human NCI-H322M cells assessed as inhibition of cell growth measured after 48 hrs by SRB assay; type: functional
OVCAR-8 = assay: Antiproliferative activity against human OVCAR-8 cells assessed as inhibition of cell growth at 10 uM measured after 48 hrs by SRB assay relative to control; type: functional
HCC 2998 = assay: Antiproliferative activity against human HCC 2998 cells assessed as inhibition of cell growth at 10 uM measured after 48 hrs by SRB assay relative to control; type: functional
K562 = assay: Antiproliferative activity against human K562 cells assessed as inhibition of cell growth at 10 uM measured after 48 hrs by SRB assay relative to control; type: functional
[5] = target: Cyclin-dependent kinase 1/cyclin B1 (Homo sapiens, UniProt P06493); assay: Inhibition of CDK1/cyclinB (unknown origin); type: protein-complex assay
Cyclin-dependent kinase 1/cyclin B1, sequence (P06493 whole entry): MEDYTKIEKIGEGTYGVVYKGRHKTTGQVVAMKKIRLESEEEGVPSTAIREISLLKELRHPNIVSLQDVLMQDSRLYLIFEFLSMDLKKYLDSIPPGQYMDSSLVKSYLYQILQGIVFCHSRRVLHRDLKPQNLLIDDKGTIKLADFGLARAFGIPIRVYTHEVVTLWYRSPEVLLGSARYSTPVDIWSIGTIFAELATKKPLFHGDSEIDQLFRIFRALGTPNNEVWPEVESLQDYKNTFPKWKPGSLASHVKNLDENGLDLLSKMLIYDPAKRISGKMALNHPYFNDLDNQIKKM
Cyclin-dependent kinase 1/cyclin B1, sequence (P14635 whole entry, further chain): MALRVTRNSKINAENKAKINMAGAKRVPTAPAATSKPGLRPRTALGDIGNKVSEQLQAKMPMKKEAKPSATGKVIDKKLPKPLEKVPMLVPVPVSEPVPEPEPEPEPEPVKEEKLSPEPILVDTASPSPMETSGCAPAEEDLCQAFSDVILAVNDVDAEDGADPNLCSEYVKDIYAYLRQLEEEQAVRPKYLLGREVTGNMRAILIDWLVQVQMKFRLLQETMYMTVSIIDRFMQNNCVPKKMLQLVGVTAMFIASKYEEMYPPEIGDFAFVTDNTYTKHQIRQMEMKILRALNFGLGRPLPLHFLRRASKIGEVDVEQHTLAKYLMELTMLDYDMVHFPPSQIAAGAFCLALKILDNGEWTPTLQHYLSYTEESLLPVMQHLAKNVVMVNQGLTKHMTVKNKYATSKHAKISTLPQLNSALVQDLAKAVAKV

UACC-62 = assay: Antiproliferative activity against human UACC-62 cells assessed as inhibition of cell growth measured after 48 hrs by SRB assay; type: functional
HCT-116 [6] = assay: Induction of apoptosis in human HCT-116 cells assessed as late apoptotic cells at IC50 incubated for 48 hrs by annexin-V FITC and propidium iodide staining based flow cytometry analysis (reference value: 0.28 %); type: functional
TK-10 = assay: Antiproliferative activity against human TK-10 cells assessed as inhibition of cell growth measured after 48 hrs by SRB assay; type: functional
HCT-15 = assay: Antiproliferative activity against human HCT-15 cells assessed as inhibition of cell growth measured after 48 hrs by SRB assay; type: functional
WI-38 [7] = assay: Cell cycle arrest in human WI-38 cells assessed as accumulation in S phase phase at IC50 concentration incubated for 48 hrs by propidium iodide staining based flow cytometry analysis (reference value: 33.8 %); conditions: wi-38, 48 h
[8] = Selectivity index, ratio of IC50 for human WI-38 cells to IC50 for human HCT116 cells after 48 hrs by MTT assay; type: toxicity; conditions: WI-38 cells versus HCT116 cells, read-out: Ratio IC50
HCT-116 [9] = assay: Induction of apoptosis in human HCT116 cells assessed as decrease in Bcl2 gene expression by RT-PCR analysis relative to untreated control; type: functional
LOX IMVI = assay: Antiproliferative activity against human LOX IMVI cells assessed as inhibition of cell growth measured after 48 hrs by SRB assay; type: functional
SR = assay: Antiproliferative activity against human SR cells assessed as inhibition of cell growth measured after 48 hrs by SRB assay; type: functional
NCI-H522 = assay: Antiproliferative activity against human NCI-H522 cells assessed as inhibition of cell growth measured after 48 hrs by SRB assay; type: functional
Hs-578T = assay: Antiproliferative activity against human Hs-578T cells assessed as inhibition of cell growth measured after 48 hrs by SRB assay; type: functional
NCI/ADR-RES [10] = assay: Antiproliferative activity against human NCI/ADR-RES cells assessed as inhibition of cell growth at 10 uM measured after 48 hrs by SRB assay relative to control; type: functional
MDA-MB-231 = assay: Antiproliferative activity against human MDA-MB-231 cells assessed as inhibition of cell growth measured after 48 hrs by SRB assay; type: functional
HCT-116 [11] = assay: Induction of apoptosis in human HCT116 cells assessed as increase in Bax gene expression by RT-PCR analysis relative to untreated control; type: functional
SK-MEL-2 = assay: Antiproliferative activity against human SK-MEL-2 cells assessed as inhibition of cell growth measured after 48 hrs by SRB assay; type: functional
SNB-19 = assay: Antiproliferative activity against human SNB-19 cells assessed as inhibition of cell growth measured after 48 hrs by SRB assay; type: functional
[12] = read-out: LC50 (the source's name)

**Q.** For `COc1ccc(-n2c(=S)sc3c(Cl)nc(C)nc32)c(OC)c1`, which “fold change (FC)” value (HCT-116 [1]) is on record?
**A.** Its value is 11.2.

**Q.** What about the inhibition at 10 µM (NCI-H460) of the same molecule?
**A.** Its inhibition at 10 µM is greater than 50%.

**Q.** And the Activity (WI-38 [2])?
**A.** The Activity was 6.1%.

**Q.** And the GI50 (NCI/ADR-RES [3])?
**A.** The GI50 was 13.2 µM.

**Q.** And the TGI (NCI/ADR-RES [3])?
**A.** The TGI was 72.4 µM.

**Q.** And the CC50 (NCI/ADR-RES [3]; [12])?
**A.** Its CC50 is greater than 100 µM.

**Q.** And the GI50 (CAKI-1)?
**A.** Its GI50 is 6.17 µM.

**Q.** What about the TGI (CAKI-1) of the same molecule?
**A.** The TGI was 19.5 µM.

**Q.** What about the CC50 (CAKI-1; [12]) of the same molecule?
**A.** Its CC50 is 45.7 µM.

**Q.** And the GI50 (MDA-MB-435)?
**A.** The GI50 was 2.14 µM.

**Q.** What about the TGI (MDA-MB-435) of the same molecule?
**A.** The TGI was 3.89 µM.

**Q.** And the CC50 (MDA-MB-435; [12])?
**A.** Its CC50 is 7.24 µM.

**Q.** What about the Activity (HCT-116 [4]) of the same molecule?
**A.** The Activity was 22.42%.

**Q.** And the GI50 (NCI-H23)?
**A.** Its GI50 is 2.45 µM.

**Q.** What about the TGI (NCI-H23) of the same molecule?
**A.** The TGI was 5.89 µM.

**Q.** What about the CC50 (NCI-H23; [12]) of the same molecule?
**A.** The CC50 was 57.5 µM.

**Q.** And the GI50 (HOP-92)?
**A.** Its GI50 is 2.04 µM.

**Q.** And the TGI (HOP-92)?
**A.** Its TGI is 8.51 µM.

**Q.** And the CC50 (HOP-92; [12])?
**A.** The CC50 was 31.6 µM.

**Q.** What about the GI50 (IGROV-1) of the same molecule?
**A.** The GI50 was 1.95 µM.

**Q.** What about the TGI (IGROV-1) of the same molecule?
**A.** The TGI was 3.98 µM.

**Q.** What about the CC50 (IGROV-1; [12]) of the same molecule?
**A.** Its CC50 is 8.32 µM.

**Q.** And the GI50 (U-251)?
**A.** Its GI50 is 1.91 µM.

**Q.** And the TGI (U-251)?
**A.** Its TGI is 3.63 µM.

**Q.** What about the CC50 (U-251; [12]) of the same molecule?
**A.** The CC50 was 6.92 µM.

**Q.** And the GI50 (COLO 205)?
**A.** The GI50 was 3.8 µM.

**Q.** What about the TGI (COLO 205) of the same molecule?
**A.** The TGI was 13.2 µM.

**Q.** And the CC50 (COLO 205; [12])?
**A.** The CC50 was 47.9 µM.

**Q.** And the GI50 (NCI-H322M)?
**A.** Its GI50 is 2.51 µM.

**Q.** What about the TGI (NCI-H322M) of the same molecule?
**A.** The TGI was 6.46 µM.

**Q.** And the CC50 (NCI-H322M; [12])?
**A.** The CC50 was 22.4 µM.

**Q.** What about the inhibition at 10 µM (OVCAR-8) of the same molecule?
**A.** Its inhibition at 10 µM is greater than 50%.

**Q.** What about the inhibition at 10 µM (HCC 2998) of the same molecule?
**A.** Its inhibition at 10 µM is greater than 50%.

**Q.** And the inhibition at 10 µM (K562)?
**A.** Its inhibition at 10 µM is greater than 50%.

**Q.** What about the IC50 [5] of the same molecule?
**A.** Its IC50 is 0.097 µM.

**Q.** What about the GI50 (UACC-62) of the same molecule?
**A.** The GI50 was 2.04 µM.

**Q.** And the TGI (UACC-62)?
**A.** Its TGI is 4.68 µM.

**Q.** And the CC50 (UACC-62; [12])?
**A.** The CC50 was 12 µM.

**Q.** And the Activity (HCT-116 [6])?
**A.** Its Activity is 12.78%.

**Q.** And the GI50 (TK-10)?
**A.** Its GI50 is 4.68 µM.

**Q.** What about the TGI (TK-10) of the same molecule?
**A.** The TGI was 18.6 µM.

**Q.** And the CC50 (TK-10; [12])?
**A.** Its CC50 is 58.9 µM.

**Q.** What about the GI50 (HCT-15) of the same molecule?
**A.** Its GI50 is 1.95 µM.

**Q.** What about the TGI (HCT-15) of the same molecule?
**A.** Its TGI is 5.37 µM.

**Q.** And the CC50 (HCT-15; [12])?
**A.** The CC50 was 41.7 µM.

**Q.** What about the Activity (WI-38 [7]) of the same molecule?
**A.** The Activity was 26.39%.

**Q.** What about the selectivity ratio at 48 h [8] of the same molecule?
**A.** The selectivity ratio at 48 h was 4.

**Q.** What about the “fold change (FC)” value (HCT-116 [9]) of the same molecule?
**A.** The value was 3.64.

**Q.** And the GI50 (LOX IMVI)?
**A.** The GI50 was 1.7 µM.

**Q.** What about the TGI (LOX IMVI) of the same molecule?
**A.** Its TGI is 3.16 µM.

**Q.** What about the CC50 (LOX IMVI; [12]) of the same molecule?
**A.** Its CC50 is 6.03 µM.

**Q.** And the GI50 (SR)?
**A.** The GI50 was 1.41 µM.

**Q.** And the TGI (SR)?
**A.** Its TGI is 5.5 µM.

**Q.** What about the CC50 (SR; [12]) of the same molecule?
**A.** The CC50 was greater than 100 µM.

**Q.** What about the GI50 (NCI-H522) of the same molecule?
**A.** The GI50 was 1.82 µM.

**Q.** What about the TGI (NCI-H522) of the same molecule?
**A.** The TGI was 3.89 µM.

**Q.** What about the CC50 (NCI-H522; [12]) of the same molecule?
**A.** The CC50 was 8.32 µM.

**Q.** What about the GI50 (Hs-578T) of the same molecule?
**A.** Its GI50 is 2.63 µM.

**Q.** And the TGI (Hs-578T)?
**A.** Its TGI is 7.76 µM.

**Q.** What about the CC50 (Hs-578T; [12]) of the same molecule?
**A.** The CC50 was greater than 100 µM.

**Q.** And the inhibition at 10 µM (NCI/ADR-RES [10])?
**A.** Its inhibition at 10 µM is greater than 50%.

**Q.** And the GI50 (MDA-MB-231)?
**A.** Its GI50 is 3.16 µM.

**Q.** And the TGI (MDA-MB-231)?
**A.** Its TGI is 10.2 µM.

**Q.** What about the CC50 (MDA-MB-231; [12]) of the same molecule?
**A.** The CC50 was 34.7 µM.

**Q.** And the “fold change (FC)” value (HCT-116 [11])?
**A.** The value was 9.9.

**Q.** And the GI50 (SK-MEL-2)?
**A.** Its GI50 is 2.04 µM.

**Q.** What about the TGI (SK-MEL-2) of the same molecule?
**A.** The TGI was 3.98 µM.

**Q.** What about the CC50 (SK-MEL-2; [12]) of the same molecule?
**A.** Its CC50 is 7.76 µM.

**Q.** And the GI50 (SNB-19)?
**A.** The GI50 was 2.4 µM.

**Q.** What about the TGI (SNB-19) of the same molecule?
**A.** Its TGI is 5.37 µM.

**Q.** And the CC50 (SNB-19; [12])?
**A.** The CC50 was 17 µM.
